Results published in US8188152B2, “2-aminoalcohols for the treatment of neurodegenerative diseases” (Biocopea Limited, priority 2005, dated 2012).

Tested on: SJL mouse EAE model of multiple sclerosis
Test: Experimental Allergic Encephalomyelitis (EAE) in SJL mice, clinical neurological scoring 0-5
Type: in vivo
Conditions: 10 mg/kg orally once a day
Procedure: Experimental Allergic Encephalomyelitis (EAE) is a central nervous system, autoimmune, demyleinating disease, that mimics many aspects of multiple sclerosis. Acute models of murine EAE are often utilised to evaluate the efficacy of therapeutics.
Acclimatised SJL mice were sensitised by a subcutaneous injection proteolipid protein (PLP) in Freund's complete adjuvant (CFA) acting as an encephalitogenic inoculum. Innoculum was administered subcutaneously at a concentration of 125 μg PLP/300 μg CFA in a volume of 200 μl. 48 hours later, an intraperitoneal injection of pertussis toxin (PTX) was administered at a dose of 20 μg/kg, to increase blood-brain barrier permeability.
(+)-Erythro-2-tert-butylamino-1-(3-chlorophenyl)-propan-1-ol hydrochloride and copoxane were administered from the first day of the experiment and once a day until the end. (+)-Erythro-2-tert-butylamino-1-(3-chlorophenyl)-propan-1-ol hydrochloride was administered orally at a dose of 10 mg/kg. Copaxone was administered intraperitoneally at a dose of 25 mg/kg. Throughout the experiment, careful clinical examinations and body weights were taken to observe the well being of the animal. In addition, clinical scoring of the EAE symptoms was taken to the classical 0-5 scale, as follows: • 0 Normal reactions • 1 Tail weakness • 2 Hind leg weakness and paresis • 3 Hind leg paralysis • 4 Quadriplegia • 5 Moribund/death Results

C[C@H](NC(C)(C)C)[C@H](O)c1cccc(Cl)c1.Cl [(+)-erythro-2-tert-butylamino-1-(3-chlorophenyl)-propan-1-ol hydrochloride]
improvement in symptoms / disease resolution (compared to the vehicle): more rapid improvement in symptoms
maximal neurologic score (versus vehicle, 0-5 scale): no improvement
